These results are taken from ChEMBL document CHEMBL3046771, “Synthesis, spectral, and antimicrobial evaluation of some new 8-membered phosphorus heterocyclic compounds” (2011).

What all share (type): functional
Assay [1] concerns Staphylococcus aureus. Kind of assay: Antibacterial activity against Staphylococcus aureus at 25 ppm by disk diffusion method. Details: unit not given here.
In assay [2] the test system is Escherichia coli. The assay is described as follows: Antibacterial activity against Escherichia coli at 25 ppm by disk diffusion method. The arrangement: unit not given here. (A growth-free zone around the sample is the usual read-out of agar diffusion tests.)
Assay [3] concerns Aspergillus niger. Kind of assay: Antifungal activity against Aspergillus niger at 100 ppm by disk diffusion method. The arrangement: unit not given here.
Assay [4] deals with Helminthosporium. The assay is described as follows: Antifungal activity against Helminthosporium oryzae at 100 ppm by disc diffusion method. The arrangement: unit not given here.
In assay [5] the test system is Aspergillus niger. The assay is described as follows: Antifungal activity against Aspergillus niger at 25 ppm by disk diffusion method. The arrangement: unit not given here.
Assay [6] relates to Helminthosporium. The assay is described as follows: Antifungal activity against Helminthosporium oryzae at 25 ppm by disc diffusion method. The arrangement: unit not given here.
For assay [7], the system named is Escherichia coli. The assay is described as follows: Antibacterial activity against Escherichia coli at 50 ppm by disk diffusion method. Details: unit not given here.
The subject of assay [8] is Escherichia coli. Kind of assay: Antibacterial activity against Escherichia coli at 100 ppm by disk diffusion method. Details: unit not given here.
Assay [9] concerns Helminthosporium. Kind of assay: Antifungal activity against Helminthosporium oryzae at 50 ppm by disc diffusion method. Details: unit not given here.
Assay [10] concerns Aspergillus niger. The assay is described as follows: Antifungal activity against Aspergillus niger at 50 ppm by disk diffusion method. Details: unit not given here.
For assay [11], the system named is Staphylococcus aureus. The assay is described as follows: Antibacterial activity against Staphylococcus aureus at 100 ppm by disk diffusion method. Details: unit not given here.
Assay [12] deals with Staphylococcus aureus. Kind of assay: Antibacterial activity against Staphylococcus aureus at 50 ppm by disk diffusion method.

Regarding `CC(Cc1ccccc1)OCP1(=S)CNc2cccc3cccc(c23)NC1` (centres undefined), the “inhibition zone (IZ)” value in the assay with Staphylococcus aureus [1] was found to be 7; in the assay on Escherichia coli [2], 8; in the assay on Aspergillus niger [3] it was 13; with Helminthosporium [4], 10; in the assay on Aspergillus niger [5], 8; with Helminthosporium [6] it was 7. Also, the “inhibition zone (IZ)” value in the assay on Escherichia coli [7] amounted to 9; with Escherichia coli [8], 8; in the assay with Helminthosporium [9], 9; with Aspergillus niger [10], 9; with Staphylococcus aureus [11], 10; in the assay on Staphylococcus aureus [12], 9%.
As for `CC(NCP1(=[Se])CNc2cccc3cccc(c23)NC1)c1ccccc1` (centres undefined), the “inhibition zone (IZ)” value is on record as 5 in the assay with Staphylococcus aureus [1]; 3 in the assay with Escherichia coli [2]; 12 in the assay with Aspergillus niger [3]; 9 in the assay on Helminthosporium [4]; 6 in the assay on Aspergillus niger [5]; 5 in the assay with Helminthosporium [6]. The “inhibition zone (IZ)” value was determined as 5 with Escherichia coli [7]; 10 in the assay on Escherichia coli [8]; 8 with Helminthosporium [9]; 9 in the assay on Aspergillus niger [10]; 11 with Staphylococcus aureus [11]; 9% in the assay with Staphylococcus aureus [12].
Take `CCC(C)OCP1(=S)CNc2cccc3cccc(c23)NC1` (centres undefined): the “inhibition zone (IZ)” value with Staphylococcus aureus [1] is 8; in the assay with Escherichia coli [2], 9; with Aspergillus niger [3], 14; in the assay with Helminthosporium [4], 13; in the assay on Aspergillus niger [5], 9; with Helminthosporium [6], 8. Besides, the “inhibition zone (IZ)” value with Escherichia coli [7] was 10; in the assay with Escherichia coli [8], 14; in the assay with Helminthosporium [9] it was 12; in the assay on Aspergillus niger [10], 10; with Staphylococcus aureus [11], 13; in the assay on Staphylococcus aureus [12], 12%.
On to `[Se]=P1(CBr)CNc2cccc3cccc(c23)NC1`, for which the “inhibition zone (IZ)” value with Escherichia coli [2] turned out to be 4; in the assay on Aspergillus niger [3], 10; with Helminthosporium [4] it was 9; in the assay on Aspergillus niger [5], 4; in the assay with Escherichia coli [7], 6; with Escherichia coli [8], 12. In addition, the “inhibition zone (IZ)” value with Helminthosporium [9] is reported as 8; with Aspergillus niger [10], 6; in the assay on Staphylococcus aureus [11] it was 9; in the assay on Staphylococcus aureus [12] it was 8%.
Take `CC(Cc1ccccc1)OCP1(=[Se])CNc2cccc3cccc(c23)NC1` (centres undefined): the “inhibition zone (IZ)” value is listed as 7 in the assay with Staphylococcus aureus [1]; 7 in the assay on Escherichia coli [2]; 10 with Aspergillus niger [3]; 12 in the assay on Helminthosporium [4]; 7 in the assay on Aspergillus niger [5]; 7 in the assay on Helminthosporium [6]. Besides, the “inhibition zone (IZ)” value in the assay with Escherichia coli [7] is recorded as 8; in the assay on Escherichia coli [8], 10; in the assay with Helminthosporium [9] it was 10; in the assay on Aspergillus niger [10] it was 8; in the assay with Staphylococcus aureus [11], 12; in the assay with Staphylococcus aureus [12], 10%.
As to `CC(NCP1(=S)CNc2cccc3cccc(c23)NC1)c1ccccc1` (centres undefined), the “inhibition zone (IZ)” value with Staphylococcus aureus [1] is listed as 8; in the assay on Escherichia coli [2], 6; in the assay with Aspergillus niger [3] it was 9; with Helminthosporium [4], 12; in the assay with Aspergillus niger [5], 6; in the assay on Helminthosporium [6], 8. The “inhibition zone (IZ)” value with Escherichia coli [7] was determined as 7; in the assay on Escherichia coli [8], 11; in the assay with Helminthosporium [9], 7; in the assay with Aspergillus niger [10] it was 7; in the assay on Staphylococcus aureus [11], 12; in the assay with Staphylococcus aureus [12], 7%.
Turning to `CCC(C)OCP1(=[Se])CNc2cccc3cccc(c23)NC1` (centres undefined), the “inhibition zone (IZ)” value in the assay on Staphylococcus aureus [1] came out at 7; with Escherichia coli [2], 8; in the assay with Aspergillus niger [3] it was 13; with Helminthosporium [4] it was 14; in the assay on Aspergillus niger [5], 8; in the assay with Helminthosporium [6], 7. The “inhibition zone (IZ)” value in the assay with Escherichia coli [7] was 10; with Escherichia coli [8], 13; in the assay with Helminthosporium [9] it was 10; in the assay with Aspergillus niger [10], 10; in the assay on Staphylococcus aureus [11], 14; with Staphylococcus aureus [12], 10%.
For `S=P1(CBr)CNc2cccc3cccc(c23)NC1`, the “inhibition zone (IZ)” value is recorded as 9 in the assay with Staphylococcus aureus [1]; 3 in the assay with Escherichia coli [2]; 9 in the assay on Aspergillus niger [3]; 13 in the assay on Helminthosporium [4]; 3 in the assay with Aspergillus niger [5]; 9 with Helminthosporium [6]. In addition, the “inhibition zone (IZ)” value in the assay with Escherichia coli [7] amounted to 5; in the assay with Escherichia coli [8] it was 10; in the assay on Helminthosporium [9], 11; with Aspergillus niger [10] it was 5; in the assay on Staphylococcus aureus [11] it was 13; in the assay on Staphylococcus aureus [12], 11%.
As to `CCC(CO)NCP1(=S)CNc2cccc3cccc(c23)NC1` (centres undefined), the “inhibition zone (IZ)” value was 5 in the assay on Staphylococcus aureus [1]; 8 in the assay on Escherichia coli [2]; 10 in the assay with Aspergillus niger [3]; 11 in the assay on Helminthosporium [4]; 8 in the assay on Aspergillus niger [5]; 5 in the assay with Helminthosporium [6]. Further, the “inhibition zone (IZ)” value in the assay with Escherichia coli [7] came to 10; in the assay on Escherichia coli [8] it was 10; in the assay with Helminthosporium [9], 9; in the assay on Aspergillus niger [10], 10; with Staphylococcus aureus [11], 11; in the assay on Staphylococcus aureus [12] it was 9%.
As for `CCC(CO)NCP1(=[Se])CNc2cccc3cccc(c23)NC1` (centres undefined), the “inhibition zone (IZ)” value was determined as 8 in the assay on Staphylococcus aureus [1]; 7 in the assay with Escherichia coli [2]; 9 with Aspergillus niger [3]; 10 in the assay with Helminthosporium [4]; 4 in the assay with Aspergillus niger [5]; 6 in the assay on Helminthosporium [6]. Besides, the “inhibition zone (IZ)” value in the assay on Escherichia coli [7] worked out at 6; in the assay with Escherichia coli [8], 19; with Helminthosporium [9], 9; with Aspergillus niger [10] it was 6; with Staphylococcus aureus [11], 10; with Staphylococcus aureus [12], 6%.
In the case of `CC1(C)S[C@@H]2[C@H](NC(=O)Cc3ccccc3)C(=O)N2[C@H]1C(=O)O` [PENICILLIN G], the “inhibition zone (IZ)” value in the assay on Staphylococcus aureus [12] was determined as 8%.
